# According to patent publication US10238631B2, “Sesquiterpene derivatives and their use in inflammation or cancer treatment” (Academia Sinica, priority 2014, dated 2019):
# Test system: LPS-induced nitric oxide (NO) production in RAW 264.7 cells
# Assay: Nitric oxide production in LPS-stimulated macrophages (Griess)
# Type: cell-based, mouse
# Conditions: Mus musculus; LPS-stimulated RAW264.7, nitrite 24 h after LPS
# Description: (§1) Marcophages (2×10^5 cells/well in 96-well plate) were treated with compounds for 1 h, then incubated further for 24 h with or without the presence of […] LPS in the cultural medium. Nitrite levels in cell culture medium were determined by the Griess reaction method. In parallel to the Griess assays, macrophage cell viabilities were determined using the MTT based colorimetric assay.
# LPS from the outer membrane of Gram-negative bacteria can induce mRNA or protein levels of inducible nitric oxide synthase (iNOS), which catalyzes oxidative deamination of L-arginine to produce nitric oxide (NO). Once NO is predominantly produced, it interacts with superoxide anion and generates highly reactive oxidants resulting in cellular inflammation, DNA, protein and tissue damages, carcinogenesis, and antiapoptosis. We used in vitro LPS stimulated inflammation in RAW264.7 cell system to evaluate the effect of DET and its derivatives DETDs on NO production by determination of nitrite level (equivalent to NO level) in culture medium 24 h after LPS treatment.
row,Compound,IC50 [µM]
1,C=C1C(=O)OC2CC3=C[C@@H](C/C(C)=C/C(OC(=O)CCc4cccc5ccccc45)[C@H]12)OC3=O (stereo partly drawn) [DETD-51],> 10
2,C=C1C(=O)OC2CC3=C[C@@H](C/C(C)=C/C(OC(=O)C4CC4)[C@H]12)OC3=O (stereo partly drawn) [DETD-36],1.8
3,C=C1C(=O)OC2CC3=C[C@@H](C/C(C)=C/C(OC(=O)c4ccccc4)[C@H]12)OC3=O (stereo partly drawn) [DETD-31],3.2
4,C=C1C(=O)OC2CC3=C[C@@H](C/C(C)=C/C(OC(=O)/C=C/c4ccc(C)cc4)[C@H]12)OC3=O (stereo partly drawn) [DETD-27],1.9

# Test system: MCF-7 (ER+, Her2−) human breast cancer cells
# Assay: MTT cell viability assay, MCF-7 cells
# Type: cell-based
# Conditions: MCF7, 24 h, read-out: IC50 on cell viability, MCF-7 (ER+, Her2−)
# Description: (§2) Normal or cancer cells (2×10^3 to 1×10^4 cells/well) were seeded in 96-well plate for overnight and treated with different compounds for 24 h to 72 h. Cells growth were determined by MTT-based colorimetric assays according to. Viability of the test cells treated with vehicle (0.5% DMSO) only was defined as 100% viable. Survival of cells after treatment with DETDs was calculated using the following formula: viable cell number (%)=OD570 (treated cell culture)/OD570 (vehicle control)×100.
# (§3) Sixty DETDs were derived from parental compound […] and tested for anti-breast cancer cell activity.
row,Compound,IC50 [µM]
1,C=C1C(=O)OC2CC3=C[C@@H](C/C(C)=C/C(OC(=O)CCc4cccc5ccccc45)[C@H]12)OC3=O (stereo partly drawn) [DETD-51],> 7.5
2,C=C1C(=O)OC2CC3=C[C@@H](C/C(C)=C/C(OC(=O)C4CC4)[C@H]12)OC3=O (stereo partly drawn) [DETD-36],7.1
3,C=C1C(=O)OC2CC3=C[C@@H](C/C(C)=C/C(OC(=O)c4ccccc4)[C@H]12)OC3=O (stereo partly drawn) [DETD-31],5.9
4,C=C1C(=O)OC2CC3=C[C@@H](C/C(C)=C/C(OC(=O)/C=C/c4ccc(C)cc4)[C@H]12)OC3=O (stereo partly drawn) [DETD-27],3.7

# Test system: Melanocyte (Normal cells)
# Assay: MTT cell viability assay, normal melanocytes
# Type: cell-based, human
# Conditions: Homo sapiens, Melanocyte, 24 h
# Description: as §2
# (§4) Several genes are involved in melanoma development and pathology; specifically, mutation in V-raf murine sarcoma viral oncogene homolog B1 (B-RAF) occurs approximately 50-60% and in neuroblastoma RAS viral oncogene homolog (N-RAS) occurs about 30% of malignant melanomas. A spectrum of wild-type or mutated melanoma cell lines including B16-F10, MeWo, A375, A2058, HTB-68, and melanocyte were used to study anti-melanoma cell proliferation activity of parental phytocompound DET and newly synthesized DETDs.
row,Compound,IC50 [µM]
1,C=C1C(=O)OC2CC3=C[C@@H](C/C(C)=C/C(OC(=O)CCc4cccc5ccccc45)[C@H]12)OC3=O (stereo partly drawn) [DETD-51],> 10
2,C=C1C(=O)OC2CC3=C[C@@H](C/C(C)=C/C(OC(=O)C4CC4)[C@H]12)OC3=O (stereo partly drawn) [DETD-36],> 10
3,C=C1C(=O)OC2CC3=C[C@@H](C/C(C)=C/C(OC(=O)c4ccccc4)[C@H]12)OC3=O (stereo partly drawn) [DETD-31],> 10
4,C=C1C(=O)OC2CC3=C[C@@H](C/C(C)=C/C(OC(=O)/C=C/c4ccc(C)cc4)[C@H]12)OC3=O (stereo partly drawn) [DETD-27],> 10

# Test system: M10 normal mammary epithelial cells
# Assay: MTT cell viability assay, M10 normal cells
# Type: cell-based, human
# Conditions: Homo sapiens, Epithelial cell, 24 h
# Description: as §2, §3
row,Compound,IC50 [µM]
1,C=C1C(=O)OC2CC3=C[C@@H](C/C(C)=C/C(OC(=O)CCc4cccc5ccccc45)[C@H]12)OC3=O (stereo partly drawn) [DETD-51],> 7.5
2,C=C1C(=O)OC2CC3=C[C@@H](C/C(C)=C/C(OC(=O)C4CC4)[C@H]12)OC3=O (stereo partly drawn) [DETD-36],> 7.5
3,C=C1C(=O)OC2CC3=C[C@@H](C/C(C)=C/C(OC(=O)c4ccccc4)[C@H]12)OC3=O (stereo partly drawn) [DETD-31],> 7.5
4,C=C1C(=O)OC2CC3=C[C@@H](C/C(C)=C/C(OC(=O)/C=C/c4ccc(C)cc4)[C@H]12)OC3=O (stereo partly drawn) [DETD-27],> 7.5

# Test system: MeWo (No NRAS or BRAF mutation)
# Assay: MTT cell viability assay, MeWo melanoma
# Type: cell-based, human
# Conditions: Homo sapiens, MeWo, 24 h
# Description: as §2, §4
row,Compound,IC50 [µM]
1,C=C1C(=O)OC2CC3=C[C@@H](C/C(C)=C/C(OC(=O)CCc4cccc5ccccc45)[C@H]12)OC3=O (stereo partly drawn) [DETD-51],> 10
2,C=C1C(=O)OC2CC3=C[C@@H](C/C(C)=C/C(OC(=O)C4CC4)[C@H]12)OC3=O (stereo partly drawn) [DETD-36],> 10
3,C=C1C(=O)OC2CC3=C[C@@H](C/C(C)=C/C(OC(=O)c4ccccc4)[C@H]12)OC3=O (stereo partly drawn) [DETD-31],> 10
4,C=C1C(=O)OC2CC3=C[C@@H](C/C(C)=C/C(OC(=O)/C=C/c4ccc(C)cc4)[C@H]12)OC3=O (stereo partly drawn) [DETD-27],> 10

# Test system: B16-F10 (NRAS mutation)
# Assay: MTT cell viability assay, B16-F10 melanoma
# Type: cell-based
# Conditions: Mus musculus, B16-F10, 24 h, 24 h, read-out: IC50 on cell viability, B16-F10 (NRAS mutation)
# Description: as §2, §4
row,Compound,IC50 [µM]
1,C=C1C(=O)OC2CC3=C[C@@H](C/C(C)=C/C(OC(=O)CCc4cccc5ccccc45)[C@H]12)OC3=O (stereo partly drawn) [DETD-51],> 10
2,C=C1C(=O)OC2CC3=C[C@@H](C/C(C)=C/C(OC(=O)C4CC4)[C@H]12)OC3=O (stereo partly drawn) [DETD-36],9.4
3,C=C1C(=O)OC2CC3=C[C@@H](C/C(C)=C/C(OC(=O)c4ccccc4)[C@H]12)OC3=O (stereo partly drawn) [DETD-31],2.9
4,C=C1C(=O)OC2CC3=C[C@@H](C/C(C)=C/C(OC(=O)/C=C/c4ccc(C)cc4)[C@H]12)OC3=O (stereo partly drawn) [DETD-27],4.8

# Test system: RAW264.7 (normal macrophage)
# Assay: MTT cell viability assay, RAW264.7 macrophages
# Type: cell-based, mouse
# Conditions: Mus musculus, RAW264.7, 24 h
# Description: as §2, §1
row,Compound,IC50 [µM]
1,C=C1C(=O)OC2CC3=C[C@@H](C/C(C)=C/C(OC(=O)CCc4cccc5ccccc45)[C@H]12)OC3=O (stereo partly drawn) [DETD-51],> 10
2,C=C1C(=O)OC2CC3=C[C@@H](C/C(C)=C/C(OC(=O)C4CC4)[C@H]12)OC3=O (stereo partly drawn) [DETD-36],> 10
3,C=C1C(=O)OC2CC3=C[C@@H](C/C(C)=C/C(OC(=O)c4ccccc4)[C@H]12)OC3=O (stereo partly drawn) [DETD-31],> 10
4,C=C1C(=O)OC2CC3=C[C@@H](C/C(C)=C/C(OC(=O)/C=C/c4ccc(C)cc4)[C@H]12)OC3=O (stereo partly drawn) [DETD-27],> 10

# Test system: A375 (BRAF mutation)
# Assay: MTT cell viability assay, A375 melanoma
# Type: cell-based, human
# Conditions: Homo sapiens, A-375, 24 h, 24 h, MTT; read-out: IC50 on cell viability, A375 (BRAF mutation)
# Description: as §2, §4
# To investigate whether or not DETD-35 show synergism with PLX4032 against A375 melanoma cells, we performed anti-proliferation assay using MTT reagent to obtain IC50 of each compound. […] The synergistic effect was quantified by combination index (CI) analysis as stated above.
row,Compound,IC50 [µM]
1,C=C1C(=O)OC2CC3=C[C@@H](C/C(C)=C/C(OC(=O)CCc4cccc5ccccc45)[C@H]12)OC3=O (stereo partly drawn) [DETD-51],> 10
2,C=C1C(=O)OC2CC3=C[C@@H](C/C(C)=C/C(OC(=O)C4CC4)[C@H]12)OC3=O (stereo partly drawn) [DETD-36],9.2
3,C=C1C(=O)OC2CC3=C[C@@H](C/C(C)=C/C(OC(=O)c4ccccc4)[C@H]12)OC3=O (stereo partly drawn) [DETD-31],4.3
4,C=C1C(=O)OC2CC3=C[C@@H](C/C(C)=C/C(OC(=O)/C=C/c4ccc(C)cc4)[C@H]12)OC3=O (stereo partly drawn) [DETD-27],> 10

# Test system: A2058 (BRAF mutation)
# Assay: MTT cell viability assay, A2058 melanoma
# Type: cell-based, human
# Conditions: Homo sapiens, A2058, 24 h
# Description: as §2, §4
row,Compound,IC50 [µM]
1,C=C1C(=O)OC2CC3=C[C@@H](C/C(C)=C/C(OC(=O)CCc4cccc5ccccc45)[C@H]12)OC3=O (stereo partly drawn) [DETD-51],> 10
2,C=C1C(=O)OC2CC3=C[C@@H](C/C(C)=C/C(OC(=O)C4CC4)[C@H]12)OC3=O (stereo partly drawn) [DETD-36],> 10
3,C=C1C(=O)OC2CC3=C[C@@H](C/C(C)=C/C(OC(=O)c4ccccc4)[C@H]12)OC3=O (stereo partly drawn) [DETD-31],> 10
4,C=C1C(=O)OC2CC3=C[C@@H](C/C(C)=C/C(OC(=O)/C=C/c4ccc(C)cc4)[C@H]12)OC3=O (stereo partly drawn) [DETD-27],> 10

# Test system: HTB-68 (NRAS mutation)
# Assay: MTT cell viability assay, HTB-68 melanoma
# Type: cell-based, human
# Conditions: Homo sapiens, 24 h
# Description: as §2, §4
row,Compound,IC50 [µM]
1,C=C1C(=O)OC2CC3=C[C@@H](C/C(C)=C/C(OC(=O)CCc4cccc5ccccc45)[C@H]12)OC3=O (stereo partly drawn) [DETD-51],> 10
2,C=C1C(=O)OC2CC3=C[C@@H](C/C(C)=C/C(OC(=O)C4CC4)[C@H]12)OC3=O (stereo partly drawn) [DETD-36],> 10
3,C=C1C(=O)OC2CC3=C[C@@H](C/C(C)=C/C(OC(=O)c4ccccc4)[C@H]12)OC3=O (stereo partly drawn) [DETD-31],> 10
4,C=C1C(=O)OC2CC3=C[C@@H](C/C(C)=C/C(OC(=O)/C=C/c4ccc(C)cc4)[C@H]12)OC3=O (stereo partly drawn) [DETD-27],> 10

# Test system: MDA-MB-231 (ER−, PR−, Her2−) human breast cancer cells
# Assay: MTT cell viability assay, MDA-MB-231 cells
# Type: cell-based
# Conditions: Homo sapiens, MDA-MB-231, 24 h, read-out: IC50 on cell viability, MDA-MB-231 (ER−, PR−, Her2−)
# Description: as §2, §3
row,Compound,IC50 [µM]
1,C=C1C(=O)OC2CC3=C[C@@H](C/C(C)=C/C(OC(=O)CCc4cccc5ccccc45)[C@H]12)OC3=O (stereo partly drawn) [DETD-51],> 15
2,C=C1C(=O)OC2CC3=C[C@@H](C/C(C)=C/C(OC(=O)C4CC4)[C@H]12)OC3=O (stereo partly drawn) [DETD-36],8.7
3,C=C1C(=O)OC2CC3=C[C@@H](C/C(C)=C/C(OC(=O)c4ccccc4)[C@H]12)OC3=O (stereo partly drawn) [DETD-31],4.5
4,C=C1C(=O)OC2CC3=C[C@@H](C/C(C)=C/C(OC(=O)/C=C/c4ccc(C)cc4)[C@H]12)OC3=O (stereo partly drawn) [DETD-27],3.6

# Test system: TS/A (ER+, Her2−) murine mammary cancer cells
# Assay: MTT cell viability assay, TS/A cells
# Type: cell-based
# Conditions: Mus musculus, 24 h, read-out: IC50 on cell viability, TS/A (ER+, Her2−)
# Description: as §2, §3
row,Compound,IC50 [µM]
1,C=C1C(=O)OC2CC3=C[C@@H](C/C(C)=C/C(OC(=O)CCc4cccc5ccccc45)[C@H]12)OC3=O (stereo partly drawn) [DETD-51],> 7.5
2,C=C1C(=O)OC2CC3=C[C@@H](C/C(C)=C/C(OC(=O)C4CC4)[C@H]12)OC3=O (stereo partly drawn) [DETD-36],2.4
3,C=C1C(=O)OC2CC3=C[C@@H](C/C(C)=C/C(OC(=O)c4ccccc4)[C@H]12)OC3=O (stereo partly drawn) [DETD-31],2
4,C=C1C(=O)OC2CC3=C[C@@H](C/C(C)=C/C(OC(=O)/C=C/c4ccc(C)cc4)[C@H]12)OC3=O (stereo partly drawn) [DETD-27],2.4
